The text below walks through data of ChEMBL document CHEMBL5380807, “Imidazo[1,2-a]Pyridine Derivatives as Novel Dual-Target Inhibitors of ABCB1 and ABCG2 for Reversing Multidrug Resistance” (J Med Chem, 2023).

Data set [1] concerns K562. Description: Reversal of ABCB1 mediated adriamycin resistance in human K562 cells assessed as reduction in survival rate at 1 uM preincubated for 1 hrs followed by adriamycin addition and measured after 72 hrs by MTS assay. The format is functional, cell-based. The conditions noted are these: time 73.0 hrs. In general terms: Tetrazolium dyes change colour on reduction, which living cells bring about.

In data set [2] the test system is K562. The experiment in a line: Reversal of ABCB1 mediated adriamycin resistance in human K562 cells assessed as reduction in survival rate at 5 uM preincubated for 1 hrs followed by adriamycin addition and measured after 72 hrs by MTS assay. It is filed as functional, cell-based. The conditions noted are these: time 73.0 hrs.
The subject of data set [3] is K562/A02. Description: Reversal of ABCB1 mediated adriamycin resistance in human K562/A02 cells overexpressing ABCB1 assessed as reduction in survival rate at 1 uM preincubated for 1 hrs followed by adriamycin addition and measured after 72 hrs by MTS assay. The format is functional. To be noted: time 73 hrs.
Data set [4] relates to K562/A02. The experiment in a line: Reversal of ABCB1 mediated adriamycin resistance in human K562/A02 cells overexpressing ABCB1 assessed as reduction in survival rate at 5 uM preincubated for 1 hrs followed by adriamycin addition and measured after 72 hrs by MTS assay. The format is functional. The conditions noted are these: time 73 hrs.
Data set [5] has as its system K562/A02. The experiment in a line: Reversal of ABCB1 mediated multidrug resistance in human K562/A02 cells overexpressing ABCB1 assessed as decrease in survival rate at 5 uM preincubated for 1 hrs followed by vincristine addition and measured after 72 hrs by MTS assay. The format is functional. The conditions noted are these: time 73 hrs.
Data set [6] has as its target ATP-dependent translocase ABCB1 (Homo sapiens, UniProt P08183). The experiment in a line: Inhibition of ABCB1 (unknown origin) ATPase activity assessed as decrease in luminescence by firefly luciferase reporter assay.
Data set [7] deals with K562. Description: Antitumor activity against human K562 cells xenografted in BALB/c mouse assessed as tumor growth inhibition at 20 mg/kg, ip QD for 14 days in presence of adriamycin. To be noted: time 14.0 day. The format is functional, organism-based.
Data set [8] deals with T1, Broad substrate specificity ATP-binding cassette transporter ABCG2 (Homo sapiens, UniProt Q9UNQ0).
T1 sequence (Q9UNQ0 whole entry): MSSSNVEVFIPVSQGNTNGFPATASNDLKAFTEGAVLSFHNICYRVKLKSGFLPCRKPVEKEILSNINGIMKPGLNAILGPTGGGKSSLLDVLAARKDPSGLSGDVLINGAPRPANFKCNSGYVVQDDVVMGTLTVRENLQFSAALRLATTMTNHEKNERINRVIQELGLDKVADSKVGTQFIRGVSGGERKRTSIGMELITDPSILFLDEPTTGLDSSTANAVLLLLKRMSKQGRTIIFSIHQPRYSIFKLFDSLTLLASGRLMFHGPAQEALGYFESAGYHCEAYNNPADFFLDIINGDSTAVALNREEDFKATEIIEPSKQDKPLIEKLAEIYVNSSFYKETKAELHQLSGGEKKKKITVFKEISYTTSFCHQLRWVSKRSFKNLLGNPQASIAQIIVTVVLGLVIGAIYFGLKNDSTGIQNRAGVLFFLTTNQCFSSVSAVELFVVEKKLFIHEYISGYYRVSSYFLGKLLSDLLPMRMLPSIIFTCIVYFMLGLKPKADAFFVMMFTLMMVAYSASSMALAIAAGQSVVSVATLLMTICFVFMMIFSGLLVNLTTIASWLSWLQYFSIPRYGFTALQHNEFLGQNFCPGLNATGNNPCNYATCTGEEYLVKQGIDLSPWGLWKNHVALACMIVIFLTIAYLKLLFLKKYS
Description: Inhibition of ABCG2 (unknown origin) ATPase activity assessed as decrease in luminescence by firefly luciferase reporter assay. A general note: In a reporter assay the amount or activity of a reporter protein is the signal.

Data set [9] can be described thus: Cytotoxicity against human K562/A02 cells overexpressing ABCB1 assessed as decrease in cell survival rate incubated for 72 hrs by MTS assay. It is filed as toxicity, cell-based.
In data set [10] the test system is K562. The experiment in a line: Antitumor activity against human K562 cells xenografted in BALB/c mouse assessed as tumor growth inhibition at 1 mg/kg, ip BW for 14 days. The format is functional, organism-based. The conditions noted are these: time 14.0 day. On the technique in general: In xenograft studies the graft and the host belong to different species.
Data set [11] concerns K562. The experiment in a line: Antitumor activity against human K562 cells xenografted in BALB/c mouse assessed as tumor growth inhibition at 1 mg/kg, ip BW for 14 days in presence of verapamil. To be noted: time 14.0 day. The format is functional, organism-based.
Data set [12] concerns K562. Description: Antitumor activity against human K562 cells xenografted in BALB/c mouse assessed as tumor growth inhibition at 1 mg/kg, ip BW for 14 days in presence of N-(4-(3-((4-Phenyipiperazin-1-yl)methyl)imidazo[l,2-a]pyridin-2-yl)phenyl)-2-(4-(4-(trifluoromethoxy)phenyl)piperazin-1-yl)acetamide. It is filed as functional, organism-based. The conditions noted are these: time 14.0 day.

Data set [13] relates to K562/A02. The experiment in a line: Antitumor activity against human K562/A02 cells overexpressing ABCB1 xenografted in BALB/c mouse assessed as tumor growth inhibition at 1 mg/kg, ip BW for 14 days in presence of N-(4-(3-((4-Phenyipiperazin-1-yl)methyl)imidazo[l,2-a]pyridin-2-yl)phenyl)-2-(4-(4-(trifluoromethoxy)phenyl)piperazin-1-yl)acetamide. To be noted: time 14.0 day. It is filed as functional, organism-based.

In data set [14] the test system is K562/A02. The experiment in a line: Antitumor activity against human K562/A02 cells overexpressing ABCB1 xenografted in BALB/c mouse assessed as tumor growth inhibition at 1 mg/kg, ip BW for 14 days. The conditions noted are these: time 14.0 day. It is filed as functional, organism-based.
Data set [15] can be described thus: Toxicity in BALB/c mouse xenografted with human K562 cells assessed as body weight loss at 1 mg/kg, ip BW for 14 days. It is filed as organism-based. To be noted: in vivo, 336 h, time 14 day.
The nature of data set [16]: Toxicity in BALB/c mouse xenografted with human K562 cells assessed as body weight loss at 1 mg/kg, ip BW for 14 days in presence of verapamil. The format is organism-based. To be noted: in vivo, 336 h, time 14 day.
Data set [17] in a line: Toxicity in BALB/c mouse xenografted with human K562 cells assessed as body weight loss at 1 mg/kg, ip BW for 14 days in presence of N-(4-(3-((4-Phenyipiperazin-1-yl)methyl)imidazo[l,2-a]pyridin-2-yl)phenyl)-2-(4-(4-(trifluoromethoxy)phenyl)piperazin-1-yl)acetamide. It is filed as organism-based. The conditions noted are these: in vivo, 336 h, time 14 day.
Data set [18] is described as follows: Toxicity in BALB/c mouse xenografted with human K562/A02 cells overexpressing ABCB1 assessed as body weight loss at 1 mg/kg, ip BW for 14 days. It is filed as organism-based. To be noted: in vivo, 336 h, time 14 day.
Data set [19] is described as follows: Toxicity in BALB/c mouse xenografted with human K562/A02 cells overexpressing ABCB1 assessed as body weight loss at 1 mg/kg, ip BW for 14 days in presence of verapamil. The format is organism-based. The conditions noted are these: in vivo, 336 h, time 14 day.
A short description of data set [20]: Toxicity in BALB/c mouse xenografted with human K562/A02 cells overexpressing ABCB1 assessed as body weight loss at 1 mg/kg, ip BW for 14 days in presence of N-(4-(3-((4-Phenyipiperazin-1-yl)methyl)imidazo[l,2-a]pyridin-2-yl)phenyl)-2-(4-(4-(trifluoromethoxy)phenyl)piperazin-1-yl)acetamide. It is filed as organism-based. To be noted: in vivo, 336 h, time 14 day.

Calls of active or inactive are those of the source. The calls are words filed in the database; no cut-off is given here.

Sequence of ATP-dependent translocase ABCB1 (P08183 whole entry): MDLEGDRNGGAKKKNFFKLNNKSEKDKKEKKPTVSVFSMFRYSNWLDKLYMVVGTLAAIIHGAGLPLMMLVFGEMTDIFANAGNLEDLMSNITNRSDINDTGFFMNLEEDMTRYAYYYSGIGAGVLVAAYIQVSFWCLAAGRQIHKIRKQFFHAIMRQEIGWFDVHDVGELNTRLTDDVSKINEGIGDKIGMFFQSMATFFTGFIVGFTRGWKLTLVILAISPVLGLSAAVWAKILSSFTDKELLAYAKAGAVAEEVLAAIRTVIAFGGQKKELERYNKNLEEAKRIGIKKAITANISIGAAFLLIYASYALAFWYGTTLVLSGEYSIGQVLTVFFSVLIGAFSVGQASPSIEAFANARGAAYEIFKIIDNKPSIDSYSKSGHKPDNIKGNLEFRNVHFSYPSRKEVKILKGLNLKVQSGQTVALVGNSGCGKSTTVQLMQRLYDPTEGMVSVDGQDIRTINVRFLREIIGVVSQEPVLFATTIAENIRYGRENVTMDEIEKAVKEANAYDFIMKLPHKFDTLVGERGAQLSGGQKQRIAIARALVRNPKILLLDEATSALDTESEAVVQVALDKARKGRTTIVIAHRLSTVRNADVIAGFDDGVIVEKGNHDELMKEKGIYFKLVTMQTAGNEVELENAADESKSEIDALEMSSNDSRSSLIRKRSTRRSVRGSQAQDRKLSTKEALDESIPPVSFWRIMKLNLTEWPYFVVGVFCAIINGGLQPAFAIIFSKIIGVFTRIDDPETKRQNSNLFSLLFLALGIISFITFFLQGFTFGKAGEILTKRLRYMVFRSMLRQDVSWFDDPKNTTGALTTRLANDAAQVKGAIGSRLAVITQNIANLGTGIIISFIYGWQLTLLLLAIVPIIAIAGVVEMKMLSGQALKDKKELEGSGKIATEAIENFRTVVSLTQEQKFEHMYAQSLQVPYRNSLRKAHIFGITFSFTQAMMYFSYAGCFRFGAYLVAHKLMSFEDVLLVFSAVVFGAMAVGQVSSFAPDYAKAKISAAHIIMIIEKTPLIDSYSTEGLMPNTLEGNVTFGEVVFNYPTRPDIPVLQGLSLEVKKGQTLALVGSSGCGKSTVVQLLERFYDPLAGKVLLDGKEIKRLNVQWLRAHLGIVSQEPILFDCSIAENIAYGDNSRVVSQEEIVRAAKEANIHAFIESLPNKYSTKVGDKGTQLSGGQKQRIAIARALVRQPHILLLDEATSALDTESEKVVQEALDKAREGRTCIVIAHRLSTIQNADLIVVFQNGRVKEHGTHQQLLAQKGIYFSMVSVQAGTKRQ

Regarding `COc1ccc(CCN(C)CCCC(C#N)(c2ccc(OC)c(OC)c2)C(C)C)cc1OC` (stereo not drawn), the result in data set [1] and in [2] was Active. For the same molecule, the Activity is given as 70% in data set [3], 51% in data set [4] and 56% in data set [5]. In [6], the “inhibition (INH)” value is reported as “Not Active”. Also, the result in data set [7] was inactive.

As to `CC[C@@]1(O)C(=O)OCc2c1cc1n(c2=O)Cc2cc3c(CN(C)C)c(O)ccc3nc2-1` [TOPOTECAN], the “inhibition (INH)” value in data set [6] and in data set [8] was “Not Active” throughout.

Usually IC50 stands for the concentration needed to halve the response being measured. Turning to `COc1cccc2c1C(=O)c1c(O)c3c(c(O)c1C2=O)C[C@@](O)(C(=O)CO)C[C@@H]3O[C@H]1C[C@H](N)[C@H](O)[C@H](C)O1.Cl` [DOXORUBICIN HYDROCHLORIDE], in [9], the IC50 at 72 h came to 58.6 µM. Moreover, the outcome in data set [10] and in data set [13] was Active. Besides, the outcome in data set [11], in [12] and in [14] was inactive. In addition, the Activity result in [15] is “Toxic”; in data set [16], “Non-Toxic”; in data set [17] it was “Non-Toxic”; in data set [18], “Non-Toxic”; in data set [19], “Non-Toxic”; in data set [20] it was “Non-Toxic”.

For the molecule SODIUM VANADATE, the “inhibition (INH)” value in data set [6] and in data set [8] was “Active” throughout.
